Reference: ChEMBL document CHEMBL1157194, “Recent advances in selective alpha1-adrenoreceptor antagonists as antihypertensive agents” (Bioorg Med Chem, 2008)

Experiments:
[1] = Binding affinity to adrenergic alpha1 receptor
[2] = Dissociation constant, pKb of the compound; type: physicochemical
[3] = target: T1, Alpha-1A adrenergic receptor (Rattus norvegicus, UniProt P43140); assay: (§1) Antagonist activity at rat spleen adrenergic alpha1A receptor; type: functional, tissue-based; details: read-out: pA2 (converted)
T1 sequence (P43140 whole entry): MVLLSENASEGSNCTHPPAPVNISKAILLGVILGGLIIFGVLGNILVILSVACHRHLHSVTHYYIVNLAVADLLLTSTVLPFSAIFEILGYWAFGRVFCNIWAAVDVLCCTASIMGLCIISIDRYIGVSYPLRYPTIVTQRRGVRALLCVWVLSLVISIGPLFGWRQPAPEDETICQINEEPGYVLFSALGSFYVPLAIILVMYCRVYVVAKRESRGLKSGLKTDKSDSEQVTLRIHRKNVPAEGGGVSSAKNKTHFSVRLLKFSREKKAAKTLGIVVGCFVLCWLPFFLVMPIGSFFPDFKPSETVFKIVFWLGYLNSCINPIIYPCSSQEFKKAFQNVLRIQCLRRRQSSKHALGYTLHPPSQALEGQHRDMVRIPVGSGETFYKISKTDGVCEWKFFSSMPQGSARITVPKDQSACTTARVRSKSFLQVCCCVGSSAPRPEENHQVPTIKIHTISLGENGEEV

[4] = target: T2, Alpha-1A adrenergic receptor (Rattus norvegicus) (UniProt P43140); assay: as §1; type: functional, tissue-based
T2 sequence (whole entry): T1 sequence (P43140 whole entry)

[5] = target: T3, Alpha-1A adrenergic receptor (Oryctolagus cuniculus) (UniProt O02824); assay: Antagonist activity at rabbit urethra adrenergic alpha1A receptor relative to phenylephrine; type: functional; set-up: scale not given: the % may be the effect or the level left
T3 sequence (whole entry): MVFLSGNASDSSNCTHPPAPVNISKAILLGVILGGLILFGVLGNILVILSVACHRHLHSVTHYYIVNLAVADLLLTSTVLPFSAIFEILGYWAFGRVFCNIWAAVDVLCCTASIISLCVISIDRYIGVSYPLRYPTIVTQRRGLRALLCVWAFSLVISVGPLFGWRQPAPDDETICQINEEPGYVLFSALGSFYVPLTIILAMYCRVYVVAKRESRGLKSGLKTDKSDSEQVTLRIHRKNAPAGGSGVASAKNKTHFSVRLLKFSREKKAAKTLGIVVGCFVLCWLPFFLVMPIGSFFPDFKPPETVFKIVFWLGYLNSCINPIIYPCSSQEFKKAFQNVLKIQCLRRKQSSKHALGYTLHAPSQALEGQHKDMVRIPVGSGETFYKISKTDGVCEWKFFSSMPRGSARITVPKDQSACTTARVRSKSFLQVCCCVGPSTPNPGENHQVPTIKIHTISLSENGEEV

[6] = target: T4, Alpha-1A adrenergic receptor (Oryctolagus cuniculus, UniProt O02824); assay: Agonist activity at rabbit urethra adrenergic alpha1A receptor; type: functional
T4 sequence (O02824 whole entry): T3 sequence (whole entry)

[7] = target: T2, Alpha-1A adrenergic receptor (Rattus norvegicus); assay: Antagonist activity at rat spleen adrenergic alpha1A receptor relative to phenylephrine; type: functional, tissue-based; set-up: scale not given: the % may be the effect or the level left
[8] = Binding affinity to adrenergic alpha1N receptor
[9] = Binding affinity to adrenergic alpha1H receptor
[10] = Antagonist activity at adrenergic alpha1 receptor; type: functional
[11] = species on record: Homo sapiens; assay: Selectivity for human alpha1A adrenergic receptor over human cloned alpha2A adrenergic receptor
[12] = species on record: Homo sapiens; assay: Selectivity for human alpha1A adrenergic receptor over human cloned Alpha-2C adrenergic receptor
[13] = species on record: Homo sapiens; assay: Selectivity for human alpha1A adrenergic receptor over human cloned alpha2B adrenergic receptor
[14] = species on record: Rattus norvegicus; assay: Antagonistic activity at alpha 1-adrenoceptor in rat; type: functional, organism-based; details: read-out: pA2 (converted)
[15] = Binding affinity to human cloned dopamine D4.7 receptor
[16] = target: T5, D(4) dopamine receptor (Homo sapiens, UniProt P21917); assay: Binding affinity to human cloned dopamine D4.4 receptor
T5 sequence (P21917 whole entry): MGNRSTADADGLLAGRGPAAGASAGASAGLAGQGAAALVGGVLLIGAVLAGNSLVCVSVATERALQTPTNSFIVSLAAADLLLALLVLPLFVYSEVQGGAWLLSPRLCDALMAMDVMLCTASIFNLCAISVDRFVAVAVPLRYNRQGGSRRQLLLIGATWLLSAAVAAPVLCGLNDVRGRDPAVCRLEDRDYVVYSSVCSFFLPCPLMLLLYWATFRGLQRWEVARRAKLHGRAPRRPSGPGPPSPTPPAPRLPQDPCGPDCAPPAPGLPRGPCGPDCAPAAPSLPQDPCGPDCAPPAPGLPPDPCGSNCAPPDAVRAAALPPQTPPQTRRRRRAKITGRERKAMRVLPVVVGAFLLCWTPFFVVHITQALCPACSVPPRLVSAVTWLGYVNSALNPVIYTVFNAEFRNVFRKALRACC

[17] = Binding affinity to human cloned dopamine D4.2 receptor
[18] = target: 5-hydroxytryptamine receptor 2A (Homo sapiens, UniProt P28223); assay: Binding affinity to 5HT2A
[19] = target: D(2) dopamine receptor (Homo sapiens, UniProt P14416); assay: Binding affinity to dopamine D2 receptor
[20] = target: 5-hydroxytryptamine receptor 1B (Homo sapiens, UniProt P28222); assay: Binding affinity to 5HT1B
[21] = target: T6, Alpha-1A adrenergic receptor (Homo sapiens, UniProt P35348); assay: Binding affinity to adrenergic alpha1A receptor
T6 sequence (P35348 whole entry): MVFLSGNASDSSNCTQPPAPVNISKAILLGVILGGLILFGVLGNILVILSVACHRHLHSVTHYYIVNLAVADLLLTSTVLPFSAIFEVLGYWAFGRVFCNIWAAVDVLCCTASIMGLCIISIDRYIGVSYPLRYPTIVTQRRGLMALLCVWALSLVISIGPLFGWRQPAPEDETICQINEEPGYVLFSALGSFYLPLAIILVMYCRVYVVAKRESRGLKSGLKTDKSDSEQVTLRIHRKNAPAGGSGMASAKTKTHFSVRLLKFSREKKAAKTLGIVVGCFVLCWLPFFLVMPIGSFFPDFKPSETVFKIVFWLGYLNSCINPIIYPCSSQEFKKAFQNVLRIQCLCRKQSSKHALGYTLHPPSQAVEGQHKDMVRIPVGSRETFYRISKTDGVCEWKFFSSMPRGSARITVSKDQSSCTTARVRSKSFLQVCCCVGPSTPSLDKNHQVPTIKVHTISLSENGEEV

[22] = target: T7, 5-hydroxytryptamine receptor 1A (Homo sapiens, UniProt P08908); assay: Binding affinity to 5HT1A
T7 sequence (P08908 whole entry): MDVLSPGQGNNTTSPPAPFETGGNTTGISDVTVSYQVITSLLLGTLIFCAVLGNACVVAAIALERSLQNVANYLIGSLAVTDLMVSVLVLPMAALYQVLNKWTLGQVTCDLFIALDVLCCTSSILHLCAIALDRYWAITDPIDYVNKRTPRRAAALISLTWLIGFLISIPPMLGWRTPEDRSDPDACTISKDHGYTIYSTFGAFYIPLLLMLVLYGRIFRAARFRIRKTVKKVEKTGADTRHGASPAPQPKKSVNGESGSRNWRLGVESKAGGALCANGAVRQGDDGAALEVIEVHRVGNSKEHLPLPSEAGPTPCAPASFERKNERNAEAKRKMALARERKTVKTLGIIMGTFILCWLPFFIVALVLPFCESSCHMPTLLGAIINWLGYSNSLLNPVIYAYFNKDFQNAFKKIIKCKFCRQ

[23] = Binding affinity to adrenergic alpha2 receptor
[24] = Binding affinity to 5HT2
[25] = target: D(3) dopamine receptor (Homo sapiens, UniProt P35462); assay: Binding affinity to dopamine D3 receptor
[26] = Binding affinity to adrenergic alpha1L receptor
[27] = Selectivity for alpha2 adrenergic receptor over alpha1 adrenergic receptor
[28] = target: T8, Alpha-1B adrenergic receptor (Homo sapiens) (UniProt P35368); assay: Antagonist activity at adrenergic Alpha-1B receptor; type: functional
T8 sequence (whole entry): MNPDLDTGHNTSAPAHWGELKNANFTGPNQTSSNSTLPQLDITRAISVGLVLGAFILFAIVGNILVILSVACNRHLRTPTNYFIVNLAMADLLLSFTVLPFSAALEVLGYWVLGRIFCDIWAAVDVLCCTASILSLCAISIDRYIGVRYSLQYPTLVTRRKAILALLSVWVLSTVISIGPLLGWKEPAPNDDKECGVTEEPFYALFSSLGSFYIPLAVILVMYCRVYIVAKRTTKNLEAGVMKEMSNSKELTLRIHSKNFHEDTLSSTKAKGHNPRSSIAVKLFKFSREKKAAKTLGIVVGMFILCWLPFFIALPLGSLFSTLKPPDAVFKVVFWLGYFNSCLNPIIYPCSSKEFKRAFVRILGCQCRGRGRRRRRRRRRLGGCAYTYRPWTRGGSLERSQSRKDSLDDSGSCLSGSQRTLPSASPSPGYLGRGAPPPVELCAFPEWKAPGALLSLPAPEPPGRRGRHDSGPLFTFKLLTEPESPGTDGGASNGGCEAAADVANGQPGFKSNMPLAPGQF

[29] = target: T9, Alpha-1D adrenergic receptor (Homo sapiens) (UniProt P25100); assay: Antagonist activity at adrenergic Alpha-1D receptor; type: functional
T9 sequence (whole entry): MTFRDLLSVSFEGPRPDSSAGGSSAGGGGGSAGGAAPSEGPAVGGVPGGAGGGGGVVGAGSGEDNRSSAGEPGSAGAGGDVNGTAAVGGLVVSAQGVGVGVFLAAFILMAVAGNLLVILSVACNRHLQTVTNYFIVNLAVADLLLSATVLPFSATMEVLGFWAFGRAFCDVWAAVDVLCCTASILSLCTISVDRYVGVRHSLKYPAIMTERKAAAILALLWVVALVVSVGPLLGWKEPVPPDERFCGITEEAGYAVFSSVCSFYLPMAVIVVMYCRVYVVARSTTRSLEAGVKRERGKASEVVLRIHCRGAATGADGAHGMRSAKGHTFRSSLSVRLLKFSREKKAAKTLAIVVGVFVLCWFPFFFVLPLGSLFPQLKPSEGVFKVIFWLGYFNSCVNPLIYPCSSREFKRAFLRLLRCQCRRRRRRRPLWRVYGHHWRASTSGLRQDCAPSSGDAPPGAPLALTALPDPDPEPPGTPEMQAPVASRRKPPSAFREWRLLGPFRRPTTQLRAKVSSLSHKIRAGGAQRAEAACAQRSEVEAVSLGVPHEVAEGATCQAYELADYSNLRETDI

Sequence of 5-hydroxytryptamine receptor 1B (P28222 whole entry): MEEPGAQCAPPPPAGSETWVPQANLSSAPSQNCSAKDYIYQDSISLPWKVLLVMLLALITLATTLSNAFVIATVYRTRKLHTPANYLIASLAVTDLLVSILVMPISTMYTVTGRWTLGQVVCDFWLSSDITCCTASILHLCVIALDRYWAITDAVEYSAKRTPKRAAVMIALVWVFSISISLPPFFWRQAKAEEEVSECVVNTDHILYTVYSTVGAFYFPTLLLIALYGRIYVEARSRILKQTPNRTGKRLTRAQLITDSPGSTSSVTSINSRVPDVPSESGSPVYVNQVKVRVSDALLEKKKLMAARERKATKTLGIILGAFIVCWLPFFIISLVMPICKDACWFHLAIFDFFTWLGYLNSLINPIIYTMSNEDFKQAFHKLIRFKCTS
Sequence of D(3) dopamine receptor (P35462 whole entry): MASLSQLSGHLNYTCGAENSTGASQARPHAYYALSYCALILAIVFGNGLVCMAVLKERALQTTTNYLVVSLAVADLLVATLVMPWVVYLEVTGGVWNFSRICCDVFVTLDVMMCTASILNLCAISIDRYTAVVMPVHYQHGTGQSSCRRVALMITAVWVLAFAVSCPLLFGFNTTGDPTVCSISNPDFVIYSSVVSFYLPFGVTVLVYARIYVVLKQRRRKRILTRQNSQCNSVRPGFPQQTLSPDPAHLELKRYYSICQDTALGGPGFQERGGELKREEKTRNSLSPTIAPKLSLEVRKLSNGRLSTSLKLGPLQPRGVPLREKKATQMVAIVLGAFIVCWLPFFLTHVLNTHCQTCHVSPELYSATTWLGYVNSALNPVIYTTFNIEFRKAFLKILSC
Sequence of 5-hydroxytryptamine receptor 2A (P28223 whole entry): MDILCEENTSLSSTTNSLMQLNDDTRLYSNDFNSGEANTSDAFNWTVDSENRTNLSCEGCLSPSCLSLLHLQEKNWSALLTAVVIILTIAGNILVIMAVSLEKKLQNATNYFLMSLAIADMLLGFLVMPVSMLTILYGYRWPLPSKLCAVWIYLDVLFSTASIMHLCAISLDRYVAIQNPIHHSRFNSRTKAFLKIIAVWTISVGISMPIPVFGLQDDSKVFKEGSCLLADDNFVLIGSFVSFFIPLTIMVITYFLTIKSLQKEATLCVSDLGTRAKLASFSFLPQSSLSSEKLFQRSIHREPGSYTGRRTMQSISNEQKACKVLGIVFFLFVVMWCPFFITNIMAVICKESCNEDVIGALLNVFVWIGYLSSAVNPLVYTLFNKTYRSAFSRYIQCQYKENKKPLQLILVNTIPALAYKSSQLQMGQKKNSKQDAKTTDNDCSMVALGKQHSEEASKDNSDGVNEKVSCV
Sequence of D(2) dopamine receptor (P14416 whole entry): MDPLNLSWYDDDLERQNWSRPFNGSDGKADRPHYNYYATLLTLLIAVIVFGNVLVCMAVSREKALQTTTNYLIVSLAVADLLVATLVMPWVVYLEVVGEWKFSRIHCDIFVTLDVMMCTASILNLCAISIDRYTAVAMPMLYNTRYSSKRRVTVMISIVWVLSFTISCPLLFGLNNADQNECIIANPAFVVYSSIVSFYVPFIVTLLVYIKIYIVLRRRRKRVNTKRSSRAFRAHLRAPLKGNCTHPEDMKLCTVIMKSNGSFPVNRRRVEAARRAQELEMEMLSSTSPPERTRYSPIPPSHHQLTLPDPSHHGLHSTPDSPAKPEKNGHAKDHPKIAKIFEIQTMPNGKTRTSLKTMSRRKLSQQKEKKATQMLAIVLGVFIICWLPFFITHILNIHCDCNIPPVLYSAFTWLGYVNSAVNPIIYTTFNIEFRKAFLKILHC

SMILES: NC(=O)CN(CCc1ccccc1)C(=O)CN(C(=O)CNCCc1ccc(O)cc1)c1ccc(Oc2ccccc2)cc1
- Ki ([1]; read-out: Ki): 140 nM

SMILES: COc1ccccc1OCCN1CCN(c2ccn[nH]c2=O)CC1
- pKb [2]: 6.18

SMILES: CCS(=O)(=O)Nc1cccc(Cc2c[nH]cn2)c1
- Kb [3]: 3980 nM
- pD2 [4]: 6.16
- Activity [5]: 80%
- EC50 [6]: 60 nM
- Activity [7]: 11%

SMILES: COC(=O)[C@@H]1[C@H]2C[C@H]3c4[nH]c5ccccc5c4CCN3C[C@@H]2CC[C@@H]1O
- Kb [8]: < 100 nM
- Kb [9]: > 300 nM

SMILES: COc1cccc(OC)c1OCCNCC1COc2ccccc2O1 (configuration not stated)
- Ki [1]: 0.54 nM

SMILES: COc1ccc(Cl)cc1N1CCN(CCNC(=O)c2ccco2)CC1.Cl
- pA2 [10]: 8.56

SMILES: COC(=O)C1=C(C)NC(C)=C(C(=O)NCCCN2CCC(c3ccccc3)(c3ccccc3)CC2)C1c1ccc([N+](=O)[O-])cc1 (configuration not stated)
- Selectivity ratio [11]: > 1000
- Selectivity ratio [12]: > 1000
- Selectivity ratio [13]: > 1000

SMILES: Cc1cc(C)c2c(N)nc(N3CCN(C(=O)c4ccco4)CC3)nc2n1
- Kb [14]: 15.8 nM

SMILES: Nc1nc(-c2ccc(F)cc2)c([C@@H]2CCN(CCCC(=O)c3ccc(F)cc3)C2)s1
- Ki [15]: 0.54 nM
- Ki [16]: 0.55 nM
- Ki [17]: 2.54 nM
- Ki [18]: 1.92 nM
- Ki ([1]; read-out: Ki): 1.4 nM

SMILES: CC(C)Oc1ccccc1N1CCN(Cc2cccc(C(=O)N3CCCCC3)c2)CC1 [MAZAPERTINE]
- Ki [19]: < 4 nM
- Ki [20]: 2880 nM
- Ki [21]: 0.02 nM
- Ki [22]: < 4 nM
- Ki [23]: 17 nM
- Ki [24]: 165 nM
- Ki [25]: < 4 nM
- Ki ([1]; read-out: Ki): < 4 nM

SMILES: NC(=O)CN(CCc1ccc(-c2ccccc2)cc1)C(=O)CN(C(=O)CNCCc1ccc(O)cc1)c1ccc(-c2ccccc2)cc1
- Ki ([1]; read-out: Ki): 310 nM

SMILES: O=C(CCCN1CCC(O)(c2ccc(Cl)cc2)CC1)c1ccc(F)cc1 [HALOPERIDOL]
- Ki ([1]; read-out: Ki): 1 nM

SMILES: COc1ccccc1N1CCN(CCNC(=O)c2ccco2)CC1.Cl
- pA2 [10]: 9.12

SMILES: COc1cc2nc(N3CCN(C(=O)c4ccco4)CC3)nc(N)c2cc1OC [PRAZOSIN]
- Kb [8]: > 2 nM
- Kb [9]: < 1 nM
- Kb [14]: 10 nM
- Kb [26]: > 2 nM
- Ki ([1]; read-out: Ki): 0.32 nM

SMILES: CN1CCN(C2=Nc3cc(Cl)ccc3Nc3ccccc32)CC1 [CLOZAPINE]
- Ki ([1]; read-out: Ki): 1.4 nM

SMILES: NC(=O)CN(CCc1ccccc1)C(=O)CN(C(=O)CNCCc1ccc(O)cc1)c1ccc(-c2ccccc2)cc1
- Ki ([1]; read-out: Ki): 0.32 nM

SMILES: COc1ccccc1OCCN1CCN(c2ccc(=O)n(Cn3nc(N4CCN(CCOc5ccccc5OC)CC4)ccc3=O)n2)CC1
- Selectivity ratio [27]: > 100

SMILES: COc1cccc(N2CCN(CCNC(=O)c3ccco3)CC2)c1.Cl
- pA2 [10]: 8.56

SMILES: O=C1NCCN1CCN1CCC(c2cn(-c3ccc(F)cc3)c3ccc(Cl)cc23)CC1
- Activity [28]: 3.2 nM
- Activity [29]: 9 nM
